For the assay, the target named is T1, N-type calcium channel (Cav2.2) (Homo sapiens, UniProt Q00975).
T1 construct: expressed in transfected cells
T1 sequence (Q00975 whole entry): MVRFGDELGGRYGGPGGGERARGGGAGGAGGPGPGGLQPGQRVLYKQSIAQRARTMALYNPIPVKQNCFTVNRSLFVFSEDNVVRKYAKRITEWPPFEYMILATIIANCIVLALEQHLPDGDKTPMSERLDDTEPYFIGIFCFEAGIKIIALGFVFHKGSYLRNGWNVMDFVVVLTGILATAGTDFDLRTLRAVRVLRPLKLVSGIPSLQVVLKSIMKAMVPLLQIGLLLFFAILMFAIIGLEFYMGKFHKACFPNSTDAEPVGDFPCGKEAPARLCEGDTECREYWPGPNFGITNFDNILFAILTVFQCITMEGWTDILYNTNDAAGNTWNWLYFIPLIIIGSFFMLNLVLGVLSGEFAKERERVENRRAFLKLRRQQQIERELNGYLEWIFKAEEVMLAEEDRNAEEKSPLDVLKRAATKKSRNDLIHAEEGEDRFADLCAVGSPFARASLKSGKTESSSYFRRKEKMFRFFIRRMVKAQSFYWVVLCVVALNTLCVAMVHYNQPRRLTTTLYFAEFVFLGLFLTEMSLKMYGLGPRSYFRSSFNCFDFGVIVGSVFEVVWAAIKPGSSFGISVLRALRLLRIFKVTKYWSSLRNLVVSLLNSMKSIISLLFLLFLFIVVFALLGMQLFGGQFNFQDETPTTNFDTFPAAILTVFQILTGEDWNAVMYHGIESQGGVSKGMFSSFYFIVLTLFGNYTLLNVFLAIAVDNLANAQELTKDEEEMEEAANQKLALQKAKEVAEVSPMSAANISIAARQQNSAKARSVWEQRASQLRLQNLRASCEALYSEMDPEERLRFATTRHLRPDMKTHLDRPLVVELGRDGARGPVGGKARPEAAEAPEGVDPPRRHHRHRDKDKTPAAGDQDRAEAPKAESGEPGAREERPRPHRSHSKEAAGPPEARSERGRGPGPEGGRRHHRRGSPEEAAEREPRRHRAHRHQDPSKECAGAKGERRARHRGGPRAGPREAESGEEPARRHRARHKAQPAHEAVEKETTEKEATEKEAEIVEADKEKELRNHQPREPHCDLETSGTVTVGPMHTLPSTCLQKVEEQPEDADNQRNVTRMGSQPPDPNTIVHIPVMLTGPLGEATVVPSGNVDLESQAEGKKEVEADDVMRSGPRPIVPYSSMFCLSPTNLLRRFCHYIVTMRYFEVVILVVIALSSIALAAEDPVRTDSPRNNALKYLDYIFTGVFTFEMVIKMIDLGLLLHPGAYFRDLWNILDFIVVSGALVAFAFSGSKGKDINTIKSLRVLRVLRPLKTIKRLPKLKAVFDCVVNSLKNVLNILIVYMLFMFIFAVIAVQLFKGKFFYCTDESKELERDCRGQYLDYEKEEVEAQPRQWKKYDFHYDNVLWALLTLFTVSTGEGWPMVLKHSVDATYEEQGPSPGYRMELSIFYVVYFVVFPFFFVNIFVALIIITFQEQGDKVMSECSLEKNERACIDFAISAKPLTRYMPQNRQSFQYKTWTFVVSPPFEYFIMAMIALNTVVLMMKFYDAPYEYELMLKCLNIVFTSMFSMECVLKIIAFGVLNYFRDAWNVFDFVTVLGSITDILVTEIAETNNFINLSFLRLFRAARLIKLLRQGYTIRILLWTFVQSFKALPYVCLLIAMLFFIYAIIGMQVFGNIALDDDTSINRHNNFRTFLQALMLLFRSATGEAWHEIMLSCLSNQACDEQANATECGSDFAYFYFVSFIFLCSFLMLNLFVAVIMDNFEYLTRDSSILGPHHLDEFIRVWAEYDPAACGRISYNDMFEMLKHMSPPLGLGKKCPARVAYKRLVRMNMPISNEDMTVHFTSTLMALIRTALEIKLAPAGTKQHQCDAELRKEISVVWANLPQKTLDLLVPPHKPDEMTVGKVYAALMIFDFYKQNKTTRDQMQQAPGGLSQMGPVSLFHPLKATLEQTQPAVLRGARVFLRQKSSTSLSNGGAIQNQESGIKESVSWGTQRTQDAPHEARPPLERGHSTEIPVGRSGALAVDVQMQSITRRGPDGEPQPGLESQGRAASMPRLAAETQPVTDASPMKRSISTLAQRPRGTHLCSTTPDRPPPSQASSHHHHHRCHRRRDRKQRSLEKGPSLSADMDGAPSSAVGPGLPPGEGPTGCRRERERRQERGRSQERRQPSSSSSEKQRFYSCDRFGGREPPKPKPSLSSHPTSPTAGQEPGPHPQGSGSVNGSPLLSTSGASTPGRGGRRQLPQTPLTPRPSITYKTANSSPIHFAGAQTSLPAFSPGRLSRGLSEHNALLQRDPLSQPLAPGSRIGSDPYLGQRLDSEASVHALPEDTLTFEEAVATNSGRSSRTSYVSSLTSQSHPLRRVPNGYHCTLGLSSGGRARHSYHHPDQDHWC
The assay is described as follows: Cav2.2 (N-type) calcium channel block: fluorescent potassium-depolarization assay and IonWorks / PatchXpress / manual patch clamp electrophysiology. It counts as cell-based. The note with it: aforementioned assays (Assay Examples 1-3); which assay or condition is not specified; read-out: IC50 in antagonizing the N-type calcium channel. An excerpt: Human Cav2.2 channels were stably expressed in HEK293 cells along with alpha2-delta and beta subunits of voltage-gated calcium channels. An inwardly rectifying potassium channel (Kir2.3) was also expressed in these cells to allow more precise control of the cell membrane potential by extracellular potassium concentration. At low bath potassium concentration, the membrane potential is relatively negative, and is depolarized as the bath potassium concentration is raised. In this way, the bath potassium concentration can be used to regulate the voltage-dependent conformations of the channels. Compounds are incubated with cells in the presence of low (4 mM) potassium or elevated (12, 25 or 30 mM) potassium to determine the affinity for compound block of resting (closed) channels at 4 mM potassium or affinity for block of open and inactivated channels at 12, 25 or 30 mM potassium. After the incubation period, Cav2.2 channel opening is triggered by addition of higher concentration of potassium (70 mM final concentration) to further depolarize the cell. The degree of state-dependent block can be estimated from the inhibitory potency of compounds after incubation in different potassium concentrations.
Calcium influx through Cav2.2 channels is determined using a calcium-sensitive fluorescent dye in combination with a fluorescent plate reader. Fluorescent changes were measured with either a VIPR (Aurora Instruments) or FLIPR (Molecular Devices) plate reader.
• 1. Seed cells in Poly-D-Lysine Coated 96- or 384-well plate and keep in a 37° C.-10% CO2 incubator overnight • 2. […] Read cell plate on VIPR instrument, Excitation=480 nm, Emission=535 nm • 9. With VIPR continuously reading, add 0.1 mL (96-well plate) or 0.03 mL (384-well plate) of Depolarization Buffer, which is 2× the final assay concentration, to the cell plate. […]
Block of N-type calcium channels is evaluated utilizing the IonWorks HT 384 well automated patch clamp electrophysiology device. […]
Background: In patch-clamp work, channel activity is measured electrically.
Regarding `Cn1cnc(N2C(=O)C(C)(Cc3cncnc3)c3cc(-c4cccc(OC(F)(F)F)c4)ccc32)c1` (stereo not drawn) [Example 18, 3-methyl-1-(1-methyl-1H-imidazol-4-yl)-3-pyrimidin-5-ylmethyl-5-(3-trifluoromethoxy-phenyl)-1,3-dihydro-indol-2-one], the IC50 (in general, the concentration needed to halve the response being measured) amounted to 260 nM. Consider `CC1(Cc2cncnc2)C(=O)N(c2cnc(N)cn2)c2ccc(-c3ccc(F)c(Cl)c3)cc21` (stereo not drawn) [Example 10, 1-(5-aminopyrazin-2-yl)-5-(3-chloro-4-fluorophenyl)-3-methyl-3-(pyrimidin-5-ylmethyl)-1,3-dihydro-2H-indol-2-one], for which the half-maximal inhibitory concentration (IC50) is 520 nM. Then `CC1(Cc2cncnc2)C(=O)N(c2nc[nH]n2)c2ccc(-c3ccc(F)c(Cl)c3)cc21` (stereo not drawn) [Example 2, 5-(3-chloro-4-fluorophenyl)-3-methyl-3-(pyrimidin-5-ylmethyl)-1-(1H-1,2,4-triazol-3-yl)-1,3-dihydro-2H-indol-2-one], with 230 nM.

The values are drawn from US8273749B2, “N-substituted oxindoline derivatives as calcium channel blockers” (Merck Sharp & Dohme Corp., priority 2007, dated 2012).
